Measurements taken from patent publication US11897856B1, “N-(Naphthalen-1-ylcarbamothioyl)furan-2-carboxamide as an eco-friendly insecticidal agent against Spodoptera littoralis (boisd.)” (KING FAISAL UNIVERSITY, priority 2023, dated 2024).
Converted amounts (≈) assume the structure as drawn. Read-outs that look alike come from different tables or passages of the source.

System: Spodoptera littoralis
Assay: Insecticidal bioassay screening (castor leaf dip, larval mortality)
Type: in vivo
Conditions: for Toxicity index %: 72 hrs, Diflubenzuron's LC50/compound's LC50 x 100; for LC90 (mg/L) at 95%: after 72 hrs of treatment; for LC50: Spodoptera littoralis, in Gossypium hirsutum, foliar
Procedure: Five concentrations (200, 100, 50, 25, 12.5 ppm) were designed for this synthetic compound and the reference Diflubenzuron compound as the dynamic ingredients based on ppm via diluting the commercial formulation.
In this experiment, castor leaves are immersed in each of the previously prepared concentrations of the components for 10 seconds and then left to dry for 60 minutes. Larvae of the second and fourth instars of each checked strain are prepared with treated leaves in gauze-covered glass containers for 72 hrs. An untreated control is made in which leaves are dipped in triton x-100 and distilled water only. Then the preserved leaves were removed & fresh, untreated leaves were provided for 72 hours. Three replicates (10 larvae each) were checked for each concentration. Daily inspection was carried out for all treatments and mortality percentages were recorded 3 days (72 hours) after treatment. The average mortality percentage was corrected employing Abbott's formula. The corrected mortality rate for each of the previously synthesized compounds is statistically calculated according to Finney (1970). Through this rate, the corresponding concentration test lines (LDP lines) are assessed.

[1] = against Spodoptera littoralis under laboratory conditions, instar not stated
[2] = 72 h, read-out: LC50 (mg/L) at 95%, 2nd instar larvae, after 72 hrs of treatment
[3] = 72 h, read-out: LC50 (mg/L) at 95%, 4th instar larvae, after 72 hrs of treatment

Structure (SMILES)	Toxicity index % (2nd instar larvae) [%]	LC90 (mg/L) at 95% (2nd instar larvae) [mg/L]	Toxicity index % (4th instar larvae) [%]	LC90 (mg/L) at 95% (4th instar larvae) [mg/L]	LC50 [1] [mg/L]	Insecticidal activity (in words) (against Spodoptera littoralis, compared with Diflubenzuron)	LC50 (mg/L) at 95% (in vivo) [mg/L]	LC50 [2] [mg/L]	LC50 [3] [mg/L]
O=C(NC(=S)Nc1cccc2ccccc12)c1ccco1 [Compound 2, N-(Naphthalen-1-ylcarbamothioyl)furan-2-carboxamide]	11.3	3612.2 (≈ 12200 µM)	12.9	1727.9 (≈ 5830 µM)	400 (≈ 1350 µM)	active against Spodoptera littoralis	1211.2 (≈ 4090 µM)	–	–
O=C(NC(=O)c1c(F)cccc1F)Nc1ccc(Cl)cc1 [Diflubenzuron, reference compound]	100	520.0 (≈ 1670 µM)	100	1540.5 (≈ 4960 µM)	45.2 (≈ 145 µM)	–	–	45.2 (≈ 145 µM)	144 (≈ 464 µM)
O=C(NC(=S)Nc1cccc2ccccc12)c1ccco1 [N-(Naphthalen-1-ylcarbamothioyl)furan-2-carboxamide]	–	–	–	–	–	–	–	~400 (≈ 1350 µM)	~1210 (≈ 4090 µM)
